Reference: ChEMBL document CHEMBL1152708, “Deconstructing estradiol: removal of B-ring generates compounds which are potent and subtype-selective estrogen receptor agonists” (Bioorg Med Chem Lett, 2009)

How the values were obtained:
[1] = Selectivity ratio of RBA for ERbeta to RBA for ERalpha
[2] = biological target: Estrogen receptor beta (Homo sapiens) (UniProt Q92731); experiment: Displacement of [3H]estradiol form ERbeta assessed as relative binding affinity relative to estradiol
[3] = biological target: Estrogen receptor beta (Homo sapiens) (UniProt Q92731); experiment: Activity at ERbeta expressed in CHO cells co-transfected with ERE plasmid assessed as relative transcriptional activation at 10 nM by luciferase reporter assay relative to estradiol; format: cell-based
[4] = biological target: T1, Estrogen receptor (Homo sapiens) (UniProt P03372); experiment: Activity at ERalpha expressed in CHO cells co-transfected with ERE plasmid assessed as relative transcriptional activation at 10 nM by luciferase reporter assay relative to estradiol; format: cell-based
T1 sequence (whole entry): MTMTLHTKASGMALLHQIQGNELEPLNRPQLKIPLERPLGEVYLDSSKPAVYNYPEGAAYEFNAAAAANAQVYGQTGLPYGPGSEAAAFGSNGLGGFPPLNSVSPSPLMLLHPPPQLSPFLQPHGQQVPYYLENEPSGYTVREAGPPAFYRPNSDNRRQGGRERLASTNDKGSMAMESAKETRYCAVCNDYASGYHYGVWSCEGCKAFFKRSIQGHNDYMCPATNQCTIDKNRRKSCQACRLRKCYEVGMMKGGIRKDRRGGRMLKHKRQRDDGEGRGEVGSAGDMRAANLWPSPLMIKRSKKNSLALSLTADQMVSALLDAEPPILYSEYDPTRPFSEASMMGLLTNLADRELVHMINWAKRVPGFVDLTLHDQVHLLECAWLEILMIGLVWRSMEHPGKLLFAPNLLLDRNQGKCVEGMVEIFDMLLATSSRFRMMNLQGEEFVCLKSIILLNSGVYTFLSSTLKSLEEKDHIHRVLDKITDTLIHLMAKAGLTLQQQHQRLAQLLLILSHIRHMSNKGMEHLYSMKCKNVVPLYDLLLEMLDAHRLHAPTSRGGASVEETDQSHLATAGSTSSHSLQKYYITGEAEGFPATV

[5] = biological target: T1, Estrogen receptor (Homo sapiens); experiment: Displacement of [3H]estradiol form ERalpha assessed as relative binding affinity relative to estradiol

Sequence of Estrogen receptor beta (Homo sapiens) (Q92731 whole entry): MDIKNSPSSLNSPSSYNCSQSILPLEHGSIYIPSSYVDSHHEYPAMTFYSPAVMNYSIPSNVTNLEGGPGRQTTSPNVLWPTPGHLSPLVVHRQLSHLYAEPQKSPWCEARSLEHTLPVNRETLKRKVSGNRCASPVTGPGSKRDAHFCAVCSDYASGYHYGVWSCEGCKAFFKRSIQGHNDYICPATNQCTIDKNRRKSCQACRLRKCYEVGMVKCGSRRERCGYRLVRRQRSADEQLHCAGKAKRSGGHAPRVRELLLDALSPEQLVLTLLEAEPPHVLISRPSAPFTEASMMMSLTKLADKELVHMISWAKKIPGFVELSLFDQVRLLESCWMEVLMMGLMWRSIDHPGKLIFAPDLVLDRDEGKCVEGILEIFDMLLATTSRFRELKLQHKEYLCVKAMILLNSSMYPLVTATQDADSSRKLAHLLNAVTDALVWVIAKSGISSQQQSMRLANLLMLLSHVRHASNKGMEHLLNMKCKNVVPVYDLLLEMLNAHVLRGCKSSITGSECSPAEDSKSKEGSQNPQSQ

Row | SMILES | Selectivity ratio [1] | RBA [2] [%] | Activity [3] [%] | Activity [4] [%] | RBA [5] [%]
1 | C[C@]12CC[C@H](c3ccc(O)cc3F)C[C@@H]1CC[C@@H]2O | 5 | 135 | 146 | 44 | 27
2 | Cc1cc(O)ccc1[C@H]1CC[C@@]2(C)[C@@H](CC[C@@H]2O)C1 | 12 | 33.6 | 149 | 9.7 | 2.8
3 | C[C@]12CC[C@H](c3ccc(O)c(F)c3)C[C@@H]1CC[C@@H]2O | 8.7 | 8.7 | 14 | 8.3 | 1
4 | C[C@]12CC[C@H](c3ccc(O)c(F)c3F)C[C@@H]1CC[C@@H]2O | 9.3 | 43 | – | – | 4.6
5 | C[C@]12CC[C@H](c3cc(F)c(O)c(F)c3F)C[C@@H]1CC[C@@H]2O | 9.1 | 1.73 | – | – | 0.19
6 | O=c1c(-c2ccc(O)cc2)coc2cc(O)cc(O)c12 | 41 | – | – | – | –
7 | C=Cc1cc(O)cc2nc(-c3ccc(O)c(F)c3)oc12 | 226 | – | – | – | –
8 | C[C@]12CC[C@H](c3cc(F)c(O)c(F)c3)C[C@@H]1CC[C@@H]2O | 7 | 0.28 | – | – | 0.04
9 | C[C@]12CC[C@H](c3cc(F)c(O)cc3F)C[C@@H]1CC[C@@H]2O | 8.7 | 3.3 | – | – | 0.38
10 | C[C@]12CC[C@H](c3ccc(O)cc3Cl)C[C@@H]1CC[C@@H]2O | 3.4 | – | – | – | 49
11 | C[C@]12CC[C@H](c3ccc(O)cc3)C[C@@H]1CC[C@@H]2O | 14 | 21.5 | 164 | 4.3 | 1.5
12 | C[C@]12CC[C@@H](c3ccc(O)cc3)C[C@@H]1CC[C@@H]2O | 9.8 | 0.59 | – | – | 0.06
